Earlier results as cited in article PMC8025584, “Identification of multipotent drugs for COVID-19 therapeutics with the evaluation of their SARS-CoV2 inhibitory activity” (Computational and Structural Biotechnology Journal, 2021).
Structures can show the parent of a compound that is named as a salt. Where two headings read alike, the source gives them in different places.

System: differentially expressed human proteins in COVID-19
Conditions: cited from earlier work
[1] = gene TNF, drug-gene interaction listed in DGIdb export, ref DGIdb
[2] = gene HCK, drug-gene interaction listed in DGIdb export, ref DGIdb
[3] = gene F5, drug-gene interaction listed in DGIdb export, ref DGIdb
[4] = gene CACNA1A, drug-gene interaction listed in DGIdb export, ref DGIdb

## COc1cc([C@@H]2c3cc4c(cc3[C@H](O)[C@H]3COC(=O)[C@H]23)OCO4)cc(OC)c1OC [PODOFILOX, reference compound]
Gene TUBA4A, ref DGIdb
  interaction_types: inhibitor

## ETANERCEPT
[1]
  interaction_types: inhibitor¦antibody

## C/C(=C\c1csc(C)n1)[C@@H]1C[C@@H]2O[C@]2(C)CCC[C@H](C)[C@H](O)[C@@H](C)C(=O)C(C)(C)[C@@H](O)CC(=O)N1 [IXABEPILONE]
Gene TUBA4A, ref DGIdb
  interaction_types: inhibitor

## Cc1nc(Nc2ncc(C(=O)Nc3c(C)cccc3Cl)s2)cc(N2CCN(CCO)CC2)n1 [DASATINIB]
Gene FGR, ref DGIdb
  interaction_types: inhibitor
[2]
  interaction_types: inhibitor

## CCCCc1oc2ccc(NS(C)(=O)=O)cc2c1C(=O)c1ccc(OCCCN(CCCC)CCCC)cc1 [DRONEDARONE HYDROCHLORIDE]
Gene KCNJ2, ref DGIdb
  interaction_types: blocker

## CC(C)(Oc1ccc(CCNC(=O)c2ccc(Cl)cc2)cc1)C(=O)O [BEZAFIBRATE]
Gene RXRB, ref DGIdb
  interaction_types: agonist

## O=C(O)Cc1cccc(-c2cc(CCCCCCc3ccc(O[C@H]4O[C@H](CO)[C@@H](O)[C@H](O)[C@@H]4O)c(-c4cccc(CC(=O)O)c4)c3)ccc2O[C@H]2O[C@H](CO)[C@@H](O)[C@H](O)[C@@H]2O)c1 [BIMOSIAMOSE]
Gene SELL, ref DGIdb
  interaction_types: inhibitor

## C1CCC2(C1)C1CN(CC3CC3)CC2CN(CC2CC2)C1
Gene KCNH7, ref DGIdb
  interaction_types: blocker

## NS(=O)(=O)c1cc(Cl)c(Cl)c(S(N)(=O)=O)c1 [DICHLORPHENAMIDE]
Gene CA1, ref DGIdb
  interaction_types: inhibitor

## CNC(=O)c1ccc(Nc2ncc(C(F)(F)F)c(NCc3nccnc3N(C)S(C)(=O)=O)n2)cc1 [DEFACTINIB]
Gene PTK2B, ref DGIdb
  interaction_types: inhibitor

## Cc1ccc2c(=O)c3cccc(CC(=O)O)c3oc2c1C [VADIMEZAN]
[1]
  interaction_types: inducer

## CCOc1ccc2nc(S(N)(=O)=O)sc2c1 [ETHOXZOLAMIDE]
Gene CA1, ref DGIdb
  interaction_types: inhibitor

## CNC[C@H](O)c1ccc(O)c(O)c1 [EPINEPHRINE]
  interaction_types: agonist¦antagonist

## CC(C)(C#N)c1cc(Cn2cncn2)cc(C(C)(C)C#N)c1 [ANASTROZOLE]
Gene CYP19A1, ref DGIdb
  interaction_types: inhibitor

## C[C@H](NC(=O)C(=O)Nc1ccccc1C(C)(C)C)C(=O)N[C@@H](CC(=O)O)C(=O)COc1c(F)c(F)cc(F)c1F
Gene CASP4, ref DGIdb
  interaction_types: inhibitor
Gene CASP5, ref DGIdb
  interaction_types: inhibitor

## RILONACEPT
Gene IL1RN, ref DGIdb
  interaction_types: binder

## CC/C=C\C/C=C\C/C=C\C/C=C\C/C=C\C/C=C\CCC(=O)O [DOCONEXENT]
Gene RXRB, ref DGIdb
  interaction_types: activator

## CCC1NC(=O)c2cc(S(N)(=O)=O)c(Cl)cc2N1 (centres unmarked) [QUINETHAZONE]
Gene CA1, ref DGIdb
  interaction_types: inhibitor

## C[C@H]1[C@@H](O)O[C@@H]2O[C@@]3(C)CC[C@H]4[C@H](C)CC[C@@H]1[C@@]24OO3 [ARTENIMOL]
Gene PFN1, ref DGIdb
  interaction_types: ligand

## CEPROTIN
[3]
  interaction_types: inactivator

## N[C@@H](Cc1c[nH]cn1)C(=O)O [HISTIDINE]
Gene CA1, ref DGIdb
  interaction_types: activator

## CC(=O)/N=c1/sc(S(N)(=O)=O)nn1C [METHAZOLAMIDE]
Gene CA1, ref DGIdb
  interaction_types: inhibitor

## CCc1c2c(nc3ccc(OC(=O)N4CCC(N5CCCCC5)CC4)cc13)-c1cc3c(c(=O)n1C2)COC(=O)[C@]3(O)CC [IRINOTECAN, reference compound]
Gene ISG15, ref DGIdb
  interaction_types: inhibitor

## CCCN(c1ccncc1F)n1cc(C)c2ccccc21 [[…]]
Gene KCNH7, ref DGIdb
  interaction_types: blocker

## CC1=NS(=O)(=O)c2cc(Cl)ccc2N1 [DIAZOXIDE]
Gene CA1, ref DGIdb
  interaction_types: inhibitor

## DROTRECOGIN ALFA (ACTIVATED)
[3]
  interaction_types: inhibitor

## COc1cc2nc(N3CCN(C(=O)C4COc5ccccc5O4)CC3)nc(N)c2cc1OC (centres unmarked) [DOXAZOSIN]
Gene KCNH7, ref DGIdb
  interaction_types: inhibitor

## CCS(=O)(=O)Nc1ccc2c(c1)/C(=C(/Nc1ccc(CN3CCCCC3)cc1)c1ccccc1)C(=O)N2 [HESPERADIN]
[2]
  interaction_types: inhibitor
Gene PTK2B, ref DGIdb
  interaction_types: inhibitor

## CC/C(=C(\c1ccc(O)cc1)c1ccc(OCCNC)cc1)c1ccccc1 [ENDOXIFEN]
Gene CYP19A1, ref DGIdb
  interaction_types: inhibitor

## NCC1(CC(=O)O)CCCCC1 [GABAPENTIN, reference compound]
[4]
  interaction_types: modulator

## C[C@]12C=CC(=O)C=C1CC[C@@H]1[C@@H]2CC[C@]2(C)OC(=O)CC[C@@H]12 [TESTOLACTONE]
Gene CYP19A1, ref DGIdb
  interaction_types: inhibitor

## Cc1oncc1C(=O)Nc1ccc(C(F)(F)F)cc1 [LEFLUNOMIDE]
Gene PTK2B, ref DGIdb
  interaction_types: antagonist

## CCN1CCCC1CNC(=O)c1cc(S(N)(=O)=O)ccc1OC (centres unmarked) [SULPIRIDE]
Gene CA1, ref DGIdb
  interaction_types: inhibitor

## O=C1CCC(N2C(=O)c3ccccc3C2=O)C(=O)N1 (centres unmarked) [THALIDOMIDE, reference compound]
[1]
  interaction_types: inhibitor

## CC(C)(C)c1[nH]cnc1/C=c1\[nH]c(=O)/c(=C/c2ccccc2)[nH]c1=O [PLINABULIN]
Gene TUBA4A, ref DGIdb
  interaction_types: inhibitor

## C[C@H]1CC(CN)(CC(=O)O)C[C@@H]1C [ATAGABALIN]
[4]
  interaction_types: modulator

## SARGRAMOSTIM
Gene CSF2RB, ref DGIdb
  interaction_types: agonist

## BRENTUXIMAB VEDOTIN
Gene TUBA4A, ref DGIdb
  interaction_types: inhibitor

## c1ccc(-c2[nH]ncc2-c2ccnc3ccccc23)nc1 [chembl:CHEMBL261454]
Gene GAK, drug-gene interaction listed in DGIdb export, ref DGIdb
  interaction_types: inhibitor

## CN[C@@H](C)[C@@H](O)c1ccccc1 [PSEUDOEPHEDRINE]
[1]
  interaction_types: inhibitor

## NS(=O)(=O)c1ccc(S(=O)(=O)Nc2cccc3c(Cl)c[nH]c23)cc1
Gene CA1, ref DGIdb
  interaction_types: inhibitor

## Nc1nc2nc[nH]c2c(=O)[nH]1 [GUANINE]
Gene GCH1, ref DGIdb
  interaction_types: inhibitor

## Cn1cc(C2=C(c3cn(C)c4cc([N+](=O)[O-])ccc34)C(=O)NC2=O)c2ccccc21 [ENMD-981693]
Gene FGR, ref DGIdb
  interaction_types: inhibitor
[2]
  interaction_types: inhibitor

## CC(OC(=O)NCC1(CC(=O)O)CCCCC1)OC(=O)C(C)C (centres unmarked) [GABAPENTIN ENACARBIL, reference compound]
[4]
  interaction_types: modulator

## O=C(Nc1ccncc1)C(=O)c1cn(Cc2ccc(Cl)cc2)c2ccccc12 [INDIBULIN]
Gene TUBA4A, ref DGIdb
  interaction_types: inhibitor

## COc1ccc(/C=C\c2cc(OC)c(OC)c(OC)c2)cc1OP(=O)(O)O [FOS[…]]
Gene TUBA4A, ref DGIdb
  interaction_types: inhibitor

## CC(=O)Nc1nnc(S(N)(=O)=O)s1 [ACETAZOLAMIDE]
Gene CA1, ref DGIdb
  interaction_types: inhibitor

## NS(=O)(=O)c1cc2c(cc1Cl)NC(C1CC3C=CC1C3)NS2(=O)=O (centres unmarked) [CYCLOTHIAZIDE, reference compound]
Gene CA1, ref DGIdb
  interaction_types: inhibitor

## BASILIXIMAB
Gene IL2RG, ref DGIdb
  interaction_types: inhibitor

## COc1cc2nc(N3CCN(C(=O)c4ccco4)CC3)nc(N)c2cc1OC [PRAZOSIN]
Gene KCNH7, ref DGIdb
  interaction_types: inhibitor

## NC(=O)c1cnc(N[C@@H]2CCCC[C@@H]2N)nc1Nc1cccc(-n2nccn2)c1 [PRT-2607]
Gene FGR, ref DGIdb
  interaction_types: inhibitor

## Nc1ncnc2c1ncn2[C@@H]1O[C@H](COP(=O)(O)OP(=O)(O)OP(=O)(O)O)[C@@H](O)[C@H]1O [ADENOSINE TRIPHOSPHATE]
Gene P2RY13, ref DGIdb
  interaction_types: agonist

## COC1=CC(c2cc3ccccc3[nH]2)=N/C1=C\c1[nH]c(C)cc1C [OBATOCLAX MESYLATE]
Gene BCL2A1, ref DGIdb
  interaction_types: inhibitor

## NS(=O)(=O)c1cc2c(cc1C(F)(F)F)NCNS2(=O)=O [HYDROFLUMETHIAZIDE]
Gene CA1, ref DGIdb
  interaction_types: inhibitor

## FILGRASTIM
Gene CSF2RB, ref DGIdb
  interaction_types: agonist
Gene CSF3R, ref DGIdb
  interaction_types: stimulator¦agonist

## O=c1nc(OC[C@@H]2COCCO2)cc2n1CCc1cc(C#CC3CC3)ccc1-2 [GLPG-1205]
Gene GPR84, ref DGIdb
  interaction_types: antagonist

## ADALIMUMAB
[1]
  interaction_types: antibody¦inhibitor

## ALDESLEUKIN
  interaction_types: agonist

## BELIMUMAB
Gene TNFSF13B, drug-gene interaction listed in DGIdb export, ref DGIdb
  interaction_types: antibody¦inhibitor¦modulator

## C=CC(=O)N1CCC([C@@H]2CCNc3c(C(N)=O)c(-c4ccc(Oc5ccccc5)cc4)nn32)CC1 [ZANUBRUTINIB]
Gene FGR, ref DGIdb
  interaction_types: inhibitor

## CO[C@H]1C(=O)[C@]2(C)[C@@H](OC)C[C@H]3OC[C@@]3(OC(C)=O)[C@H]2[C@H](OC(=O)c2ccccc2)[C@]2(O)C[C@H](OC(=O)[C@H](O)[C@@H](NC(=O)OC(C)(C)C)c3ccccc3)C(C)=C1C2(C)C [CABAZITAXEL, reference compound]
Gene TUBA4A, ref DGIdb
  interaction_types: inhibitor¦binder

## CC(O)(P(=O)(O)O)P(=O)(O)O [ETIDRONIC ACID]
Gene SLC25A4, ref DGIdb
  interaction_types: inhibitor

## CN(C)C(=N)N=C(N)N [METFORMIN]
Gene PRKAB1, ref DGIdb
  interaction_types: activator¦inducer

## COc1ccc(S(=O)(=O)N(Cc2cccnc2)[C@@H](C(=O)NO)C(C)C)cc1 [CGS-27023A]
Gene MMP8, ref DGIdb
  interaction_types: inhibitor

## CCCc1c2oc(C(=O)O)cc(=O)c2cc2c(=O)cc(C(=O)O)n(CC)c12 [NEDOCROMIL, reference compound]
Gene FPR1, ref DGIdb
  interaction_types: antagonist

## C=CCC1=C(C)C(OC(=O)[C@@H]2[C@@H](C=C(C)C)C2(C)C)CC1=O (some centres unmarked) [BIOALLETHRIN]
[4]
  interaction_types: blocker

## N#Cc1ccc(C2CCCc3cncn32)cc1 (centres unmarked) [FADROZOLE]
  interaction_types: inhibitor

## CCOC(=O)/C=C(C)/C=C/C=C(C)/C=C/c1c(C)cc(OC)c(C)c1C [ETRETINATE]
Gene RXRB, ref DGIdb
  interaction_types: agonist

## NS(=O)(=O)c1cc2c(cc1C(F)(F)F)NC(Cc1ccccc1)NS2(=O)=O (centres unmarked) [BENDROFLUMETHIAZIDE]
Gene CA1, ref DGIdb
  interaction_types: inhibitor

## Cl.N=C(N)N [GUANIDINE HYDROCHLORIDE]
Gene KCNH7, ref DGIdb
  interaction_types: blocker

## Nc1ncc(-c2cnn(CCO)c2)c2scc(-c3ccc(NC(=O)Nc4cccc(F)c4)cc3)c12 [ILORASERTIB]
Gene FGR, ref DGIdb
  interaction_types: inhibitor
[2]
  interaction_types: inhibitor
